What was measured:
[1] = molecular target: T1, hM3Dq (Homo sapiens, UniProt P20309, Y149C/A239G); test: [3H]clozapine competition, HEK-293 membranes; type: binding; details: 2.5 nM [3H]clozapine, 50 mM Tris-HCl pH 7.4, 10 mM MgCl2, RT, 2 h
T1 construct: gene CHRM3; human M3 muscarinic receptor DREADD; AAV plasmid Addgene #89149; transiently expressed in HEK-293 cells

[2] = molecular target: T2, hM4Di (Homo sapiens, UniProt P08173, Y113C/A203G); test: [3H]clozapine competition, HEK-293 membranes; type: binding; details: 2.5 nM [3H]clozapine, 50 mM Tris-HCl pH 7.4, 10 mM MgCl2, RT, 2 h
T2 construct: gene CHRM4; human M4 muscarinic receptor DREADD; AAV plasmid Addgene #89150; transiently expressed in HEK-293 cells; docking model prints Y113G/A203G, the standard DREADD is Y113C/A203G
T2 sequence (P08173 1-479 Y113C/A203G): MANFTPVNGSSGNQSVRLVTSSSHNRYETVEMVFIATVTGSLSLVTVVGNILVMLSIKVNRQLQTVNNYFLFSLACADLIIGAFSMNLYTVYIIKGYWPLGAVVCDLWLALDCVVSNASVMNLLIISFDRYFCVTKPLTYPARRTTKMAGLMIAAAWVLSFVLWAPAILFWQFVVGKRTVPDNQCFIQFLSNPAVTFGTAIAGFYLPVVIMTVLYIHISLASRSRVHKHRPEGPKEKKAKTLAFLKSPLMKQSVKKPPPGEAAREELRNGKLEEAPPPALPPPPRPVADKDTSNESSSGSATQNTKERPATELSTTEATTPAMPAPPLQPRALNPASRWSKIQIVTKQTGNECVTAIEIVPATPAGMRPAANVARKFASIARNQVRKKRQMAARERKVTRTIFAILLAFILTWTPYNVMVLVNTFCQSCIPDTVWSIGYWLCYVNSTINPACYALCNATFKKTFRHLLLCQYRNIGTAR

[3] = molecular target: T3, hM3Dq (Homo sapiens, UniProt P20309, A239G/Y149C); test: [3H]clozapine competition, HEK-293 membranes; type: binding
T3 construct: gene CHRM3; human M3 muscarinic receptor DREADD; AAV plasmid Addgene #89149; transiently expressed in HEK-293 cells
T3 sequence (P20309 whole entry Y149C/A239G): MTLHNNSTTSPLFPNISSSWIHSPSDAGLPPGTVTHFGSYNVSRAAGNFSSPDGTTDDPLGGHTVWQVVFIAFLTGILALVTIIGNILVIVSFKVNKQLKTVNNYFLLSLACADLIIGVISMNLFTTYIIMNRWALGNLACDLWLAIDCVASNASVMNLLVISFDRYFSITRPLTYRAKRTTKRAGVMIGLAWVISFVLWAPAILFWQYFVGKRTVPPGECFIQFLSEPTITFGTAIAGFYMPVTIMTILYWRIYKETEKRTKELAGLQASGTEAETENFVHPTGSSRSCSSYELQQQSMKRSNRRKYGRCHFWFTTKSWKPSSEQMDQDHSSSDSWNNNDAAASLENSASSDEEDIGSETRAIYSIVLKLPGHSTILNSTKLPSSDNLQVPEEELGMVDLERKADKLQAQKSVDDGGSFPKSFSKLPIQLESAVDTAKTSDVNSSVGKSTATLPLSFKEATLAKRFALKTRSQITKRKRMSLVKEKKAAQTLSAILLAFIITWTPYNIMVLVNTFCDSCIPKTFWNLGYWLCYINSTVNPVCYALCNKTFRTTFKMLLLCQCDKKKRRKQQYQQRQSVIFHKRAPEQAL

[4] = molecular target: T4, hM4Di (Homo sapiens, UniProt P08173, A203G/Y113C); test: [3H]clozapine competition, HEK-293 membranes; type: binding
T4 construct: gene CHRM4; human M4 muscarinic receptor DREADD; AAV plasmid Addgene #89150; transiently expressed in HEK-293 cells; docking model prints Y113G/A203G, the standard DREADD is Y113C/A203G
T4 sequence (P08173 1-479 Y113C/A203G): T2 sequence (P08173 1-479 Y113C/A203G)

[5] = molecular target: T2, hM4Di; test: BRET Galpha-o1 activation, HEK-293; type: cell-based; details: agonist; PBS; Galpha-Rluc8, beta1, gamma2-mVenus

T1 sequence (P20309 whole entry Y149C/A239G): as above

Row | Compound | Ki [1] [µM] | Ki [2] [µM] | Ki [3] [µM] | Ki [4] [µM] | EC50 [5]
1 | CCN1CCN(C2=Nc3cc(Cl)ccc3Nc3ccccc32)CC1 [C13, Compound 13] | 0.0043 | 0.0043 |  |  | 
2 | c1ccc2c(c1)N=C(N1CCNCC1)c1ccccc1N2 [C21, Compound 21] |  |  | 0.23 | 0.091 | C21 was less potent than clozapine at Gi/o activation in cells or tissue expressing hM4Di
3 | CN1CCN(C2=Nc3cc(Cl)ccc3Nc3ccccc32)CC1 [CLZ, clozapine] |  |  |  |  | C21 was less potent than clozapine at Gi/o activation in cells or tissue expressing hM4Di

From doi:10.1101/487637v1, “Chemogenetic ligands for translational neurotheranostics” (biorxiv, 2018)
